# Laboratory results from US8202857B2, “1,3-oxazepan-2-one and 1,3-diazepan-2-one inhibitors of 11β-hydroxysteroid dehydrogenase 1” (Vitae Pharmaceuticals, Inc., priority 2008, dated 2012).
# Target: T1, human 11β-HSD1 (Homo sapiens, UniProt P28845)
# T1 construct: expressed in transfected cells; host or cells: CHO cells (microsomes)
# Assay: Inhibition of a microsomal preparation of 11β-HSD1 (SPA), Biological Test Example 1
# Type: biochemical
# Conditions: microsomes from CHO cells overexpressing human 11β-HSD1; for IC50: read-out: IC50 Range^a; for inhibition at 0.1 µM: read-out: Average % inhibition at 100 nM, 100 nM; for Average % inhibition at 100 nM: 0.1 µM
# Protocol: All reactions were carried out at rt in 96 well clear flexible PET Microbeta plates (PerkinElmer). […] After a 10 minute pre-incubation, 50 μL of enzyme solution containing microsomes isolated from CHO cells overexpressing human 11β-HSD1 (10-20 μg/ml of total protein) was added, and the plates were incubated for 90 minutes at rt. The reaction was stopped by adding 50 μl of the SPA beads suspension containing 10 μM 18β-glycyrrhetinic acid, 5 mg/ml protein A coated YSi SPA beads (GE Healthcare) and 3.3 μg/ml of anti-cortisol antibody (East Coast Biologics) in Superblock buffer (Bio-Rad). The plates were shaken for 120 minutes at rt, and the SPA signal corresponding to [^3H]cortisol was measured on a Microbeta plate reader.
# T1 sequence (P28845 whole entry): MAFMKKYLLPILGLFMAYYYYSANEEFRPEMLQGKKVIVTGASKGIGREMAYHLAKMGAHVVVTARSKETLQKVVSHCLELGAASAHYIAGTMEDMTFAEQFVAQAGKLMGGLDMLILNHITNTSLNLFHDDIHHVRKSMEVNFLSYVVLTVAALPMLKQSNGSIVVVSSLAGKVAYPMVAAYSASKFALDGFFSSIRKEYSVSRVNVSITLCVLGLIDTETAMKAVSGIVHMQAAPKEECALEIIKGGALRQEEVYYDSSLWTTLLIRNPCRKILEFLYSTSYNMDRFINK
IC50,inhibition at 0.1 µM,Average % inhibition at 100 nM,Structure (SMILES)
> 100 nM,31.7%,,"C[C@@H](c1ccc(Br)cc1)N1CCC[C@@](CC(C)(C)O)(c2ccccc2)OC1=O (single isomer, unassigned) [EXAMPLE 15 Isomer 2]"
< 100 nM,95.6%,,"C[C@@H](c1ccc(Br)cc1)N1CCC[C@](CCCO)(c2ccccc2)NC1=O [EXAMPLE 1, (S)-1-((S)-1-(4-bromophenyl)ethyl)-4-(3-hydroxypropyl)-4-phenyl-1,3-diazepan-2-one]"
< 100 nM,94.2%,,"C[C@@H](c1ccc(-c2ccn(C3CC3)c(=O)c2)cc1)N1CCC[C@](CC(C)(C)O)(c2ccccc2)NC1=O [EXAMPLE 13, (S)-1-((S)-1-(4-(1-cyclopropyl-2-oxo-1,2-dihydropyridin-4-yl)phenyl)ethyl)-4-(2-hydroxy-2-methylpropyl)-4-phenyl-1,3-diazepan-2-one]"
< 100 nM,95.5%,,"COc1ccc(-c2ccc([C@H](C)N3CCC[C@](CCO)(c4ccccc4)NC3=O)cc2)cn1 [EXAMPLE 6, (S)-4-(2-hydroxyethyl)-1-((S)-1-(4-(6-methoxypyridin-3-yl)phenyl)ethyl)-4-phenyl-1,3-diazepan-2-one]"
< 100 nM,,68.5%,"C[C@@H](c1ccc(O)cc1)N1CCCC(CC(C)(C)O)(c2ccccc2)OC1=O (single isomer, unassigned) [EXAMPLE 17 Isomer 2]"
< 100 nM,95.8%,,"CC(O)C[C@]1(c2ccccc2)CCCN([C@@H](C)c2ccc(Br)cc2)C(=O)N1 (stereo partly drawn) [EXAMPLE 4, (4S)-1-((S)-1-(4-bromophenyl)ethyl)-4-(2-hydroxypropyl)-4-phenyl-1,3-diazepan-2-one]"
< 100 nM,97.4%,,"C[C@@H](c1ccc(-c2ccc(=O)n(C3CC3)c2)cc1)N1CCC[C@](CC(C)(C)O)(c2ccccc2)NC1=O [EXAMPLE 20, (S)-1-((S)-1-(4-(1-cyclopropyl-6-oxo-1,6-dihydropyridin-3-yl)phenyl)ethyl)-4-(2-hydroxy-2-methylpropyl)-4-phenyl-1,3-diazepan-2-one]"
< 100 nM,93%,,"C=C(C)C[C@]1(c2ccccc2)CCCN([C@@H](C)c2ccc(Br)cc2)C(=O)N1 [EXAMPLE 7, (S)-1-((S)-1-(4-bromophenyl)ethyl)-4-(2-methylallyl)-4-phenyl-1,3-diazepan-2-one]"
< 100 nM,97.6%,,"C[C@@H](c1ccc(Br)cc1)N1CCC[C@](CCO)(c2ccccc2)NC1=O (single isomer, unassigned) [EXAMPLE 3 Isomer 2]"
< 100 nM,93.7%,,"C[C@@H](c1ccc(Br)cc1)N1CCC[C@](CCC(N)=O)(c2ccccc2)NC1=O [EXAMPLE 5, 3-((S)-1-((S)-1-(4-bromophenyl)ethyl)-2-oxo-4-phenyl-1,3-diazepan-4-yl)propanamide]"
< 100 nM,97.5%,,"C[C@@H](c1ccc(Br)cc1)N1CCC[C@](CC(C)(C)O)(c2ccccc2)NC1=O [EXAMPLE 8, (S)-1-((S)-1-(4-bromophenyl)ethyl)-4-(2-hydroxy-2-methylpropyl)-4-phenyl-1,3-diazepan-2-one]"
< 100 nM,80.3%,,"C[C@@H](c1ccc(-c2ccn(C)c(=O)c2)cc1)N1CCC[C@](CC(C)(C)O)(c2ccccc2)OC1=O [EXAMPLE 19, (S)-7-(2-hydroxy-2-methylpropyl)-3-((S)-1-(4-(1-methyl-2-oxo-1,2-dihydropyridin-4-yl)phenyl)ethyl)-7-phenyl-1,3-oxazepan-2-one]"
< 100 nM,86.2%,,"C[C@@H](c1ccc(Br)cc1)N1CCC[C@](CC(C)(C)O)(c2ccccc2)OC1=O (single isomer, unassigned) [EXAMPLE 15 Isomer 1]"
< 100 nM,92.9%,,"C[C@@H](c1ccc(-c2ccc(=O)n(C)c2)cc1)N1CCC[C@](CC(C)(C)O)(c2ccccc2)NC1=O [EXAMPLE 12, (S)-4-(2-hydroxy-2-methylpropyl)-1-((S)-1-(4-(1-methyl-6-oxo-1,6-dihydropyridin-3-yl)phenyl)ethyl)-4-phenyl-1,3-diazepan-2-one]"
< 100 nM,97.1%,,"C=C(C)C[C@]1(c2ccccc2)CCCN([C@@H](C)c2ccc(-c3ccc(=O)n(C)c3)cc2)C(=O)N1 [EXAMPLE 10, (S)-1-((S)-1-(4-(1-methyl-6-oxo-1,6-dihydropyridin-3-yl)phenyl)ethyl)-4-(2-methylallyl)-4-phenyl-1,3-diazepan-2-one]"
< 100 nM,,85.8%,"C[C@@H](c1ccc(Br)cc1)N1CCC[C@@](CCO)(c2ccccc2)NC1=O (single isomer, unassigned) [EXAMPLE 3 Isomer 1]"
> 100 nM,,41.6%,"C[C@@H](c1ccc(O)cc1)N1CCCC(CC(C)(C)O)(c2ccccc2)OC1=O (single isomer, unassigned) [EXAMPLE 17 Isomer 1]"
< 100 nM,95.2%,,"C=C(C)C[C@]1(c2ccccc2)CCCN([C@@H](C)c2ccc(-c3ccn(C)c(=O)c3)cc2)C(=O)N1 [EXAMPLE 9, (S)-1-((S)-1-(4-(1-methyl-2-oxo-1,2-dihydropyridin-4-yl)phenyl)ethyl)-4-(2-methylallyl)-4-phenyl-1,3-diazepan-2-one]"
< 100 nM,98.3%,,"C[C@@H](c1ccc(-c2ccn(C)c(=O)c2)cc1)N1CCC[C@](CC(C)(C)O)(c2ccccc2)NC1=O [EXAMPLE 11, (S)-4-(2-hydroxy-2-methylpropyl)-1-((S)-1-(4-(1-methyl-2-oxo-1,2-dihydropyridin-4-yl)phenyl)ethyl)-4-phenyl-1,3-diazepan-2-one]"
< 100 nM,96.2%,,"C=CC[C@]1(c2ccccc2)CCCN([C@@H](C)c2ccc(Br)cc2)C(=O)N1 (single isomer, unassigned) [EXAMPLE 2 Isomer 2]"
< 100 nM,86.8%,,"C[C@@H](c1ccc(-c2ccn(C3CC3)c(=O)c2)cc1)N1CCC[C@](CC(C)(C)O)(c2ccccc2)OC1=O [EXAMPLE 18, (S)-3-((S)-1-(4-(1-cyclopropyl-2-oxo-1,2-dihydropyridin-4-yl)phenyl)ethyl)-7-(2-hydroxy-2-methylpropyl)-7-phenyl-1,3-oxazepan-2-one]"

Structure (SMILES),IC50,inhibition at 0.1 µM,Average % inhibition at 100 nM
"C=C(C)C[C@]1(c2ccccc2)CCCN([C@@H](C)c2ccc(Br)cc2)C(=O)O1 (single isomer, unassigned) [EXAMPLE 14 Isomer 1]",< 100 nM,97.4%,
"C=C(C)C[C@@]1(c2ccccc2)CCCN([C@@H](C)c2ccc(Br)cc2)C(=O)O1 (single isomer, unassigned) [EXAMPLE 14 Isomer 2]",< 100 nM,111%,
